Like-named read-outs stand apart in the source and are kept apart here. Starred links: 1 amine or outer side, 2 acyl side, 3 side chain; linkers in the order of their positions; H or OH if unused. Positions of bridges follow the written chain, without caps; N, C: chain ends. Non-standard residues stand in square brackets, D forms with d. Residues, ends and D or L forms follow the SMILES beside them. hCys = N[C@@H](CCS)C(=O)O; Dab = NCC[C@H](N)C(=O)O; Dap = NC[C@H](N)C(=O)O; X1 = O=C(C[*:2])[*:1]; X2 = O=C(C[*:1])[*:2]

Series [1] can be described thus: Evaluation of molecule stability (alkali treatment, residual rate by LC/MS). It counts as physicochemical. To be noted: for Stability (molecule stability, residual rate of the cyclic peptide rank): alkali treatment, residual rate by LC/MS; for Performance evaluation: Stability (residual rate of cyclic peptide after alkali treatment): 500 μM peptide aqueous solution plus equivalent of 1 M sodium hydroxide, 15° C., 3 hours, LC/MS peak area. Put shortly:
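500 μM aqueous cyclic peptide mixed with an equal volume of 1 M NaOH and held 3 h at 15 °C. Residual rate is total LC/MS peak area after treatment relative to untreated (100%), using a C18 column, pH 3 ammonium formate/acetonitrile gradient, 45 °C, ESI±.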

Series [2] concerns the target human integrin αvβ5 (Homo sapiens, UniProt P06756+P18084). Put plainly: Evaluation of integrin binding property (surface plasmon resonance, Biacore 3000, immobilized cyclic peptide). Put shortly:
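SPR with cyclic peptide amine-coupled via EDC/NHS to a CM5 chip, blank channel as reference. Integrin αvβ5 at 30, 100, 300 and 1,000 nM injected 10 min at 25 °C in HEPES buffer pH 7.4 with 5 mM MgCl2, 30 min buffer flow, EDTA regeneration; Kd from reference-subtracted signals, graded by category.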
(In general: In SPR one partner is held on a chip, and binding of the other changes the refractive index at the surface.)

Where [3] appears, read: surface plasmon resonance, immobilized cyclic peptide, human integrin αvβ5, read-out: Binding activity (integrin binding property, dissociation constant rank).
Where [4] appears, read: SPR, 25° C., HEPES buffer with 5 mM magnesium chloride, integrin 30-1,000 nM, read-out: Performance evaluation: Binding activity (dissociation constant between the cyclic peptide and human integrin αvβ5).

Chain of human integrin αvβ5 (P06756 31-1048): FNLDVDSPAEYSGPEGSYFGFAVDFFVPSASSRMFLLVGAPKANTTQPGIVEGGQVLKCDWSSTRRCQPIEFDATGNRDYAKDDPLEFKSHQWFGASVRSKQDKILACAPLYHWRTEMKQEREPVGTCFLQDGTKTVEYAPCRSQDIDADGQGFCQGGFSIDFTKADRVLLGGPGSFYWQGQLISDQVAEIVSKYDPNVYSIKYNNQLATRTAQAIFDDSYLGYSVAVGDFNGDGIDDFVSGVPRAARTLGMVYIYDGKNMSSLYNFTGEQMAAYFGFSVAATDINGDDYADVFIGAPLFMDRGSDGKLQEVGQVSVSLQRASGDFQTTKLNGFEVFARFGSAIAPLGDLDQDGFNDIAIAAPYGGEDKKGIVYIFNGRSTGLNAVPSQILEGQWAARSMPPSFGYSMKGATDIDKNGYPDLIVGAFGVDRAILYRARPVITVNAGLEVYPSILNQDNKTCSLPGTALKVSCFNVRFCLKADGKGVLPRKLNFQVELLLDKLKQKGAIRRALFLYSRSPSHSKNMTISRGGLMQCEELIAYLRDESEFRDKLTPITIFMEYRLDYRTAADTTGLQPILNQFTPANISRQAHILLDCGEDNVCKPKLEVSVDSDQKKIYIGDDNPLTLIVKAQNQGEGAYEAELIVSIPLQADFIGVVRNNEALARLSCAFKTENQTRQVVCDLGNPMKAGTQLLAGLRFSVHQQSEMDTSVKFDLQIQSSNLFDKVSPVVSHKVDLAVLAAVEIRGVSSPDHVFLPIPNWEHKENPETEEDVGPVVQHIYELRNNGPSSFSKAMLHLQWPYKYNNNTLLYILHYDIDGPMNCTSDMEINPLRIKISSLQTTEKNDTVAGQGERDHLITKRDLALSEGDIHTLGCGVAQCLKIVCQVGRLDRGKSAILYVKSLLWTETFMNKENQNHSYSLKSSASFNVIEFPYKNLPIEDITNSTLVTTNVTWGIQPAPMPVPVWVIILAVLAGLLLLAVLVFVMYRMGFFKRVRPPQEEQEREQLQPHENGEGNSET
Chain of human integrin αvβ5 (P18084 24-799): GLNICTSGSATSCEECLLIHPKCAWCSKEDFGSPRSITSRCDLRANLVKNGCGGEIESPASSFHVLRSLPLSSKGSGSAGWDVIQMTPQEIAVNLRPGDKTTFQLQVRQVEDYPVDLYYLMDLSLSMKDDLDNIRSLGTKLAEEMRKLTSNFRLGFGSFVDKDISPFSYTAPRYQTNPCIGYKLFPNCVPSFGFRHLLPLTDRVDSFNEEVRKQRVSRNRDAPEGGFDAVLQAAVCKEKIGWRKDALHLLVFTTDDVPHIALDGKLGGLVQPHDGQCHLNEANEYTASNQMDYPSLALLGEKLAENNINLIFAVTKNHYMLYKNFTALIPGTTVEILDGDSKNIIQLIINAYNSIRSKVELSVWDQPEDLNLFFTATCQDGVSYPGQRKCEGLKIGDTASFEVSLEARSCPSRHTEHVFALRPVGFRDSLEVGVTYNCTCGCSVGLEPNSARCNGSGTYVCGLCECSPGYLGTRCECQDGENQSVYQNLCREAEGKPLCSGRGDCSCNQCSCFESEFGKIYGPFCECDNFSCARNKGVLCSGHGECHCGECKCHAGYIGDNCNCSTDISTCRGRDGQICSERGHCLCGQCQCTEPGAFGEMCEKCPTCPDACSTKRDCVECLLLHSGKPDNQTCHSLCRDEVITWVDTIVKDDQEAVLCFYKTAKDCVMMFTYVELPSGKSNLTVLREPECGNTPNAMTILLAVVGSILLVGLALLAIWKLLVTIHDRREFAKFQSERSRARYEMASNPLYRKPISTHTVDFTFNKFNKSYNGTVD

Regarding `CC(C)[C@@H]1NC(=O)[C@@H](NC(=O)[C@H](CCCCN)NC(=O)[C@H](CCCCN)NC(=O)[C@@H](N)CCCCN)CCSCC(=O)NCC[C@@H](C(=O)O)NC(=O)[C@H](C)NC(=O)[C@H](Cc2ccccc2)NC(=O)[C@H]([C@@H](C)O)NC(=O)[C@H](CC(=O)O)NC(=O)CNC(=O)[C@H](CCCNC(=N)N)NC(=O)[C@H](CO)NC1=O` [Cyclic peptide 149, KKK-(Hcy)-VSRGDTFA(Dab(acetyl))] (H-KKK[hCys]VSRGDTFA[Dab]-OH; linker 4-13 via X2), the “Stability (molecule stability, residual rate of the cyclic peptide rank)” value in series [1] was “A (The residual rate of the cyclic peptide is 70% or more.)”. In addition, the Kd in series [2] (setting [3]) was under 50 nM.
Consider `CC[C@H](C)[C@@H]1NC(=O)[C@@H](NC(=O)[C@H](C)NC(=O)[C@H](CCCCN)NC(=O)[C@H](CCCCN)NC(=O)[C@@H](N)CCCCN)CCSCC(=O)NCC[C@@H](C(=O)N[C@@H](C)C(=O)O)NC(=O)[C@H](CCCNC(=N)N)NC(=O)[C@H](Cc2ccccc2)NC(=O)[C@H]([C@@H](C)O)NC(=O)[C@H](CC(=O)O)NC(=O)CNC(=O)[C@H](CCCNC(=N)N)NC(=O)[C@H](CO)NC1=O` [Cyclic peptide 77, KKKA-(Hcy)-ISRGDTFR(Dab(acetyl))A] (H-KKKA[hCys]ISRGDTFR[Dab]A-OH; linker 5-14 via X2), for which, in series [1], the “Performance evaluation: Stability (residual rate of cyclic peptide after alkali treatment)” value is “A (The residual rate of the cyclic peptide is 70% or more.)”. In series [2] (setting [4]), the Kd is under 50 nM.
For the compound `C[C@@H]1NC(=O)[C@H](Cc2ccccc2)NC(=O)[C@H]([C@@H](C)O)NC(=O)[C@H](CC(=O)O)NC(=O)CNC(=O)[C@H](CCCNC(=N)N)NC(=O)[C@@H]2CCCN2C(=O)[C@H](CCC(=O)O)NC(=O)[C@@H](NC(=O)[C@H](CCCCN)NC(=O)[C@H](CCCCN)NC(=O)[C@@H](N)CCCCN)CCSCC(=O)NCC[C@@H](C(=O)O)NC1=O` [Cyclic peptide 145, KKK-(Hcy)-EPRGDTFA(Dab(acetyl))] (H-KKK[hCys]EPRGDTFA[Dab]-OH; linker 4-13 via X2), in series [1], the “Stability (molecule stability, residual rate of the cyclic peptide rank)” value is “A (The residual rate of the cyclic peptide is 70% or more.)”. The Kd in series [2] (setting [3]) was under 50 nM.
On to `CC(C)[C@@H]1NC(=O)[C@@H](NC(=O)CNC(=O)[C@H](CCCCN)NC(=O)[C@H](CCCCN)NC(=O)[C@@H](N)CCCCN)CCSCC(=O)NCC[C@@H](C(=O)NCC(=O)O)NC(=O)[C@H](C)NC(=O)[C@H](Cc2ccccc2)NC(=O)[C@H]([C@@H](C)O)NC(=O)[C@H](CC(=O)O)NC(=O)CNC(=O)[C@H](CCCNC(=N)N)NC(=O)[C@@H]2CCCN2C1=O` [Cyclic peptide 105, KKKG-(Hcy)-VPRGDTFA(Dab(acetyl))G] (H-KKKG[hCys]VPRGDTFA[Dab]G-OH; linker 5-14 via X2), for which the “Stability (molecule stability, residual rate of the cyclic peptide rank)” value in series [1] is listed as “A (The residual rate of the cyclic peptide is 70% or more.)”. For the same compound, in series [2], the Kd was under 50 nM.
Turning to `CC(C)[C@@H]1NC(=O)[C@@H](NC(=O)[C@H](C)NC(=O)[C@H](CCCCN)NC(=O)[C@H](CCCCN)NC(=O)[C@@H](N)CCCCN)CCSCC(=O)NCC[C@@H](C(=O)N[C@@H](C)C(=O)O)NC(=O)[C@H](CCCNC(=N)N)NC(=O)[C@H](Cc2ccccc2)NC(=O)[C@H]([C@@H](C)O)NC(=O)[C@H](CC(=O)O)NC(=O)CNC(=O)[C@H](CCCNC(=N)N)NC(=O)[C@@H]2CCCN2C1=O` [Cyclic peptide 74, KKKA-(Hcy)-VPRGDTFR(Dab(acetyl))A] (H-KKKA[hCys]VPRGDTFR[Dab]A-OH; linker 5-14 via X2), in series [1], the “Performance evaluation: Stability (residual rate of cyclic peptide after alkali treatment)” value is “A (The residual rate of the cyclic peptide is 70% or more.)”. Besides, the Kd in series [2] (setting [4]) is under 50 nM.
As to `CC[C@H](C)[C@@H]1NC(=O)[C@@H](NC(=O)CNC(=O)[C@H](CCCCN)NC(=O)[C@H](CCCCN)NC(=O)[C@@H](N)CCCCN)CNC(=O)CSCC[C@@H](C(=O)N[C@@H](C)C(=O)O)NC(=O)[C@H](CCCNC(=N)N)NC(=O)[C@H](Cc2ccccc2)NC(=O)[C@H]([C@@H](C)O)NC(=O)[C@H](CC(=O)O)NC(=O)CNC(=O)[C@H](CCCNC(=N)N)NC(=O)[C@@H]2CCCN2C1=O` [Cyclic peptide 117, KKKG(Dap(acetyl))IPRGDTFR-(Hcy)-A] (H-KKKG[Dap]IPRGDTFR[hCys]A-OH; linker 5-14 via X1), the “Stability (molecule stability, residual rate of the cyclic peptide rank)” value in series [1] was “B (The residual rate of the cyclic peptide is 50% or more and less than 70%.)”. The Kd in series [2] (setting [3]) is under 50 nM.
As to `CC[C@H](C)[C@@H]1NC(=O)[C@@H](NC(=O)CNC(=O)[C@H](CCCCN)NC(=O)[C@H](CCCCN)NC(=O)[C@@H](N)CCCCN)CCSCC(=O)NCC[C@@H](C(=O)N[C@@H](C)C(=O)O)NC(=O)[C@H](Cc2ccccc2)NC(=O)[C@H](CC(N)=O)NC(=O)[C@H](CC(=O)O)NC(=O)CNC(=O)[C@H](CCCNC(=N)N)NC(=O)[C@@H]2CCCN2C1=O` [Cyclic peptide 6, KKKG-(Hcy)-IPRGDNF(Dab(acetyl))A] (H-KKKG[hCys]IPRGDNF[Dab]A-OH; linker 5-13 via X2), in series [1], the “Performance evaluation: Stability (residual rate of cyclic peptide after alkali treatment)” value was “A (The residual rate of the cyclic peptide is 70% or more.)”. Moreover, the Kd in series [2] (setting [4]) lay within 50 to 100 nM.
Taken in the same sequence, the figures for `CC[C@H](C)[C@@H]1NC(=O)[C@@H](NC(=O)[C@H](CCCCN)NC(=O)[C@H](CCCCN)NC(=O)[C@@H](N)CCCCN)CCSCC(=O)NCC[C@@H](C(=O)N[C@@H](C)C(=O)O)NC(=O)[C@H](CCCNC(=N)N)NC(=O)[C@H](Cc2ccccc2)NC(=O)[C@H](CO)NC(=O)[C@H](CC(=O)O)NC(=O)CNC(=O)[C@H](CCCNC(=N)N)NC(=O)[C@@H]2CCCN2C1=O` [Cyclic peptide 25, KKK-(Hcy)-IPRGDSFR(Dab(acetyl))A] (H-KKK[hCys]IPRGDSFR[Dab]A-OH; linker 4-13 via X2) were “A (The residual rate of the cyclic peptide is 70% or more.)” and 50 to 100 nM.
Taken in the same sequence, the figures for `CC[C@H](C)[C@@H]1NC(=O)[C@@H](NC(=O)[C@H](CCCCN)NC(=O)[C@H](CCCCN)NC(=O)[C@@H](N)CCCCN)CCSCC(=O)NCC[C@@H](C(=O)O)NC(=O)[C@H](Cc2ccccc2)NC(=O)[C@H]([C@@H](C)O)NC(=O)[C@H](CC(=O)O)NC(=O)CNC(=O)[C@H](CCCNC(=N)N)NC(=O)[C@@H]2CCCN2C1=O` [Cyclic peptide 63, KKK-(Hcy)-IPRGDTF(Dab(acetyl))] (H-KKK[hCys]IPRGDTF[Dab]-OH; linker 4-12 via X2) were “A (The residual rate of the cyclic peptide is 70% or more.)” and under 50 nM.
For `CC(C)[C@@H]1NC(=O)[C@@H](NC(=O)[C@H](CCCCN)NC(=O)[C@H](CCCCN)NC(=O)[C@@H](N)CCCCN)CCSCC(=O)NCC[C@@H](C(=O)O)NC(=O)[C@H]([C@@H](C)O)NC(=O)[C@H](Cc2ccccc2)NC(=O)[C@H]([C@@H](C)O)NC(=O)[C@H](CC(=O)O)NC(=O)CNC(=O)[C@H](CCCNC(=N)N)NC(=O)[C@@H]2CCCN2C1=O` [Cyclic peptide 154, KKK-(Hcy)-VPRGDTFT(Dab(acetyl))] (H-KKK[hCys]VPRGDTFT[Dab]-OH; linker 4-13 via X2), the “Stability (molecule stability, residual rate of the cyclic peptide rank)” value in series [1] is “A (The residual rate of the cyclic peptide is 70% or more.)”. Besides, the Kd in series [2] (setting [3]) is 50 to 100 nM.

Values taken from patent US12673975B2, “Cyclic peptide, cell scaffold material, cell separating material, and medium” (FUJIFILM Corporation, priority 2019, dated 2026).
